# Measured values reported in patent publication US20250296948A1, “SYNTHESIS OF NUCLEOSIDE DERIVATIVES” (Nucana plc, priority 2022, published 2025).
# Assays:
# Assay type in all cases: physicochemical
# [1] = 6 month dry powder stability, Alpha Naphthol content by HPLC
# Text: (§1) NUC-3373 prepared according to Example 3 and Comparative Example 4 was packed into a transparent LDPE bag which was then filled with nitrogen and tied with a strip seal. This bag was then placed into another transparent LDPE bag which was also filled with nitrogen. A silica gel packet was placed between the two bags before the outermost bag was tied with a strip seal. These bags were then placed in a triple laminated sun light barrier bag which was sealed with a heat sealer. The bags were kept in a HDPE container.
# (§2) NUC-3373 was initially assayed by HPLC after manufacture (0 months) then after 1 and 2 and/or 3 and 6 months of storage at 2-8° C., 25° C. or 40° C.
# The Alpha Naphthol content of the same batches was also determined by HPLC. The levels of the alpha naphthol impurity is a key indicator of stability of the tested material.
# [2] = Solution stability, alpha naphthol (0.60 RRT) in DMA:Saline (80:20 v/v); parameters: 0.60 RRT (Alpha Naphthol): unit not given here; settings: 400 mg/mL in DMA:Saline (80:20 v/v)
# Procedure: Stability data is also provided in Table 4, which compares the levels of alpha naphthol (0.60 RRT) present in solutions of 400 mg/mL NUC-3373, prepared by Example 3 or 4, above, in DMA:Saline (80:20 v/v) at different temperatures measured over set periods of time. The tested solutions are suitable for infusion and injection and the temperatures and times measured are representative of the environments that solutions suitable for infusion and injection would typically be stored in.
# In Table 4 the two values provided for each temperature at each time period, separated by “/”, represent different preparations (samples) of that synthesis.
# [3] = 6 month dry powder stability, HPLC assay
# Text: as §1, §2
smiles,measurement,setting,value
"C[C@H](NP(=O)(OC[C@H]1O[C@@H](n2cc(F)c(=O)[nH]c2=O)CC1O)Oc1cccc2ccccc12)C(=O)OCc1ccccc1 (stereo partly drawn) [Comparative Example 4, 5-fluoro-2′-deoxyuridine-5′-O-[1-naphthyl (benzoxy-L-alaninyl)] phosphate]","Increase after 6 months, Alpha Naphthol by HPLC",[1]; 2-8 ° C.,None
same,Alpha Naphthol by HPLC (% w/w),"[1]; 2-8 ° C., 0 months",0.09 % w/w
same,Alpha Naphthol by HPLC (% w/w),"[1]; 2-8 ° C., 3 months",0.10 % w/w
same,Alpha Naphthol by HPLC (% w/w),"[1]; 2-8 ° C., 6 months",0.09 % w/w
same,"Increase after 6 months, Alpha Naphthol by HPLC",[1]; 25 ° C.,0.1 % w/w
same,Alpha Naphthol by HPLC (% w/w),"[1]; 25 ° C., 0 months",0.09 % w/w
same,Alpha Naphthol by HPLC (% w/w),"[1]; 25 ° C., 3 months",0.10 % w/w
same,Alpha Naphthol by HPLC (% w/w),"[1]; 25 ° C., 6 months",0.10 % w/w
same,"Increase after 6 months, Alpha Naphthol by HPLC",[1]; 40 ° C.,1.11 % w/w
same,Alpha Naphthol by HPLC (% w/w),"[1]; 40 ° C., 0 months",0.09 % w/w
same,Alpha Naphthol by HPLC (% w/w),"[1]; 40 ° C., 1 month",0.18 % w/w
same,Alpha Naphthol by HPLC (% w/w),"[1]; 40 ° C., 2 months",0.27 % w/w
same,Alpha Naphthol by HPLC (% w/w),"[1]; 40 ° C., 3 months",0.18 % w/w
same,Alpha Naphthol by HPLC (% w/w),"[1]; 40 ° C., 6 months",1.2 % w/w
same,0.60 RRT (Alpha Naphthol),"[2]; After 1 month at 2-8° C., first preparation (before ""/"")",0.04/0.04
same,0.60 RRT (Alpha Naphthol),"[2]; After 1 month at 2-8° C., second preparation (after ""/"")",0.04/0.04
same,0.60 RRT (Alpha Naphthol),"[2]; After 1 month at 25 ± 5° C., first preparation (before ""/"")",0.29/0.29
same,0.60 RRT (Alpha Naphthol),"[2]; After 1 month at 25 ± 5° C., second preparation (after ""/"")",0.29/0.29
same,0.60 RRT (Alpha Naphthol),"[2]; After 3 months at 2-8° C., first preparation (before ""/"")",0.06/0.06
same,0.60 RRT (Alpha Naphthol),"[2]; After 3 months at 2-8° C., second preparation (after ""/"")",0.06/0.06
same,0.60 RRT (Alpha Naphthol),"[2]; After 3 months at 25 ± 5° C., first preparation (before ""/"")",0.45
same,0.60 RRT (Alpha Naphthol),"[2]; After 3 months at 25 ± 5° C., second preparation (after ""/"")",0.46
same,0.60 RRT (Alpha Naphthol),"[2]; After 15 days at 2-8° C., first preparation (before ""/"")",0.04/0.04
same,0.60 RRT (Alpha Naphthol),"[2]; After 15 days at 2-8° C., second preparation (after ""/"")",0.04/0.04
same,0.60 RRT (Alpha Naphthol),"[2]; After 15 days at 25 ± 5° C., first preparation (before ""/"")",0.19
same,0.60 RRT (Alpha Naphthol),"[2]; After 15 days at 25 ± 5° C., second preparation (after ""/"")",0.20
same,0.60 RRT (Alpha Naphthol),[2]; Initial,0.02
same,"Decrease after 6 months, HPLC assay",[3]; 2-8 ° C.,None
same,HPLC assay (% w/w on anhydrous and solvent free basis),"[3]; 2-8 ° C., 0 months",100 % w/w
same,HPLC assay (% w/w on anhydrous and solvent free basis),"[3]; 2-8 ° C., 3 months",100 % w/w
same,HPLC assay (% w/w on anhydrous and solvent free basis),"[3]; 2-8 ° C., 6 months",100 % w/w
same,"Decrease after 6 months, HPLC assay",[3]; 25 ° C.,0.1 % w/w
same,HPLC assay (% w/w on anhydrous and solvent free basis),"[3]; 25 ° C., 0 months",99.7 % w/w
same,HPLC assay (% w/w on anhydrous and solvent free basis),"[3]; 25 ° C., 3 months",99.5 % w/w
same,HPLC assay (% w/w on anhydrous and solvent free basis),"[3]; 25 ° C., 6 months",99.6 % w/w
same,"Decrease after 6 months, HPLC assay",[3]; 40 ° C.,2.0 % w/w
same,HPLC assay (% w/w on anhydrous and solvent free basis),"[3]; 40 ° C., 0 months",99.7 % w/w
same,HPLC assay (% w/w on anhydrous and solvent free basis),"[3]; 40 ° C., 1 month",99.3 % w/w
same,HPLC assay (% w/w on anhydrous and solvent free basis),"[3]; 40 ° C., 2 months",99.0 % w/w
same,HPLC assay (% w/w on anhydrous and solvent free basis),"[3]; 40 ° C., 3 months",99.3 % w/w
same,HPLC assay (% w/w on anhydrous and solvent free basis),"[3]; 40 ° C., 6 months",97.7 % w/w
